# Test results: ChEMBL document CHEMBL3751668, “A Pyrazolo[3,4-d]pyrimidin-4-amine Derivative Containing an Isoxazole Moiety Is a Selective and Potent Inhibitor of RET Gatekeeper Mutants” (J Med Chem, 2016); call rule not given here
# What was measured:
# [1] = system: Proto-oncogene tyrosine-protein kinase receptor Ret (Homo sapiens), P07949 [C634W]; conditions: TT
# Description: Inhibition of RET C634W mutant in human TT cells assessed as cell growth inhibition after 10 days by MTT assay
# [2] = system: Proto-oncogene tyrosine-protein kinase receptor Ret (Homo sapiens), P07949 [V804M]; conditions: BaF3
# [3] = biological target: T1, Proto-oncogene tyrosine-protein kinase receptor Ret (Homo sapiens, UniProt P07949); conditions: BaF3
# Description: Inhibition of wild type TEL-fused RET (unknown origin) expressed in mouse BA/F3 cells assessed as cell growth inhibition after 48 hrs by MTT assay
# [4] = Cytotoxicity against mouse BAF3 cells after 48 hrs by MTT assay; format: cell-based
# [5] = biological target: T1, Proto-oncogene tyrosine-protein kinase receptor Ret; experiment: Inhibition of human wild type RET by radiometric assay in presence of [gamma-33P]-ATP
# [6] = Cytotoxicity against human Nthy-ori 3-1 cells after 10 days by MTT assay; format: cell-based
# [7] = biological target: Proto-oncogene tyrosine-protein kinase receptor Ret (Homo sapiens, UniProt P07949, V804M); experiment: Inhibition of human Ret V804M mutant by radiometric assay in presence of [gamma-33P]-ATP
# [8] = Induction of apoptosis in human Nthy-ori 3-1 cells at 10 uM after 48 hrs by annexinV/PI staining-based flow cytometric analysis; format: cell-based; conditions: nthy-ori 3-1, 48 h
# [9] = system: Proto-oncogene tyrosine-protein kinase receptor Ret (Homo sapiens), P07949 [S891A]; conditions: BaF3
# [10] = system: Proto-oncogene tyrosine-protein kinase receptor Ret (Homo sapiens), P07949 [V804L]; conditions: BaF3
# TT [11] = experiment: Cytotoxicity against human TT cells assessed as suppression of anchorage-independent growth at 1 uM for 30 days by soft agar assay; format: functional
# [12] = Cell cycle arrest in human Nthy-ori 3-1 cells assessed as accumulation at G2 phase at 10 uM after 24 hrs by […] staining-based flow cytometric analysis; conditions: nthy-ori 3-1, 24 h
# Cytochrome P450 2C19 = Cytochrome P450 2C19 (Homo sapiens, UniProt P33261); experiment: Inhibition of CYP2C19 (unknown origin); format: ADME
# Cytochrome P450 2D6 = Cytochrome P450 2D6 (Homo sapiens, UniProt P10635); experiment: Inhibition of CYP2D6 (unknown origin); format: ADME
# [13] = Inhibition of recombinant human PKA by radiometric assay in presence of [gamma-33P]-ATP
# [14] = biological target: T2, Vascular endothelial growth factor receptor 2 (Homo sapiens, UniProt P35968); experiment: Inhibition of TEL-fused VEGFR2 (unknown origin) expressed in mouse BA/F3 cells assessed as cell growth inhibition; format: cell-based; conditions: baf3
# TT [15] = experiment: Cytotoxicity against human TT cells assessed as suppression of anchorage-independent growth at 0.3 to 1 uM for 30 days by soft agar assay; format: functional
# [16] = biological target: Proto-oncogene tyrosine-protein kinase receptor Ret (Homo sapiens, UniProt P07949, S891A); experiment: Inhibition of human Ret S891A mutant by radiometric assay in presence of [gamma-33P]-ATP
# [17] = biological target: Ribosomal protein S6 kinase alpha-1 (Homo sapiens, UniProt Q15418); experiment: Inhibition of recombinant human RSK1 by radiometric assay in presence of [gamma-33P]-ATP
# [18] = biological target: Ribosomal protein S6 kinase beta-1 (Homo sapiens, UniProt P23443); experiment: Inhibition of recombinant human p70S6K by radiometric assay in presence of [gamma-33P]-ATP
# [19] = biological target: Proto-oncogene tyrosine-protein kinase receptor Ret (Homo sapiens, UniProt P07949, Y791F); experiment: Inhibition of human Ret Y791F mutant by radiometric assay in presence of [gamma-33P]-ATP
# [20] = biological target: Proto-oncogene tyrosine-protein kinase receptor Ret (Homo sapiens, UniProt P07949, G691S); experiment: Inhibition of human Ret G691S mutant by radiometric assay in presence of [gamma-33P]-ATP
# [21] = Half life in human liver microsomes; format: ADME
# Cytochrome P450 2C9 = Cytochrome P450 2C9 (Homo sapiens, UniProt P11712); experiment: Inhibition of CYP2C9 (unknown origin); format: ADME
# [22] = biological target: Dual specificity mitogen-activated protein kinase kinase 1 (Homo sapiens, UniProt Q02750); experiment: Inhibition of recombinant human MEK1 by radiometric assay in presence of [gamma-33P]-ATP
# [23] = biological target: Vascular endothelial growth factor receptor 3 (Homo sapiens, UniProt P35916); experiment: Inhibition of recombinant human FLT4 by radiometric assay in presence of [gamma-33P]-ATP
# Cytochrome P450 1A2 = Cytochrome P450 1A2 (Homo sapiens, UniProt P05177); experiment: Inhibition of CYP1A2 (unknown origin); format: ADME
# [24] = biological target: Tyrosine-protein kinase HCK (Homo sapiens, UniProt P08631); experiment: Inhibition of recombinant human HCK by radiometric assay in presence of [gamma-33P]-ATP
# [25] = biological target: Proto-oncogene tyrosine-protein kinase receptor Ret (Homo sapiens, UniProt P07949, M918T); experiment: Inhibition of human Ret M918T mutant by radiometric assay in presence of [gamma-33P]-ATP
# [26] = biological target: Tyrosine-protein kinase Fgr (Homo sapiens, UniProt P09769); experiment: Inhibition of recombinant human FGR by radiometric assay in presence of [gamma-33P]-ATP
# [27] = biological target: Dual specificity mitogen-activated protein kinase kinase 2 (Homo sapiens, UniProt P36507); experiment: Inhibition of recombinant human MEK2 by radiometric assay in presence of [gamma-33P]-ATP
# [28] = biological target: Voltage-gated inwardly rectifying potassium channel KCNH2 (Homo sapiens, UniProt Q12809); experiment: Inhibition of human ERG assessed as prolongation of QT-interval at 100 uM by patch-clamp assay
# [29] = biological target: Proto-oncogene tyrosine-protein kinase receptor Ret (Homo sapiens, UniProt P07949, V804L); experiment: Inhibition of human Ret V804L mutant by radiometric assay in presence of [gamma-33P]-ATP
# Cytochrome P450 3A4 = Cytochrome P450 3A4 (Homo sapiens, UniProt P08684); experiment: Inhibition of CYP3A4 (unknown origin); format: ADME
# [30] = Ratio of GI50 for human Nthy-ori-3-1 cells to GI50 for RET C634W mutant-mediated human TT cell growth inhibition
# [31] = biological target: T2, Vascular endothelial growth factor receptor 2; experiment: Inhibition of recombinant human VGFR2 by radiometric assay in presence of [gamma-33P]-ATP
# [32] = Cell cycle arrest in human Nthy-ori 3-1 cells at 1 to 10 uM after 24 hrs by […] staining-based flow cytometric analysis; conditions: nthy-ori 3-1, 24 h
# [33] = Induction of apoptosis in human Nthy-ori 3-1 cells at 1 to 10 uM after 48 hrs by annexinV/PI staining-based flow cytometric analysis; format: cell-based; conditions: nthy-ori 3-1, 48 h
# Chain of Proto-oncogene tyrosine-protein kinase receptor Ret (Homo sapiens), P07949 [V804M] (P07949 whole entry V804M): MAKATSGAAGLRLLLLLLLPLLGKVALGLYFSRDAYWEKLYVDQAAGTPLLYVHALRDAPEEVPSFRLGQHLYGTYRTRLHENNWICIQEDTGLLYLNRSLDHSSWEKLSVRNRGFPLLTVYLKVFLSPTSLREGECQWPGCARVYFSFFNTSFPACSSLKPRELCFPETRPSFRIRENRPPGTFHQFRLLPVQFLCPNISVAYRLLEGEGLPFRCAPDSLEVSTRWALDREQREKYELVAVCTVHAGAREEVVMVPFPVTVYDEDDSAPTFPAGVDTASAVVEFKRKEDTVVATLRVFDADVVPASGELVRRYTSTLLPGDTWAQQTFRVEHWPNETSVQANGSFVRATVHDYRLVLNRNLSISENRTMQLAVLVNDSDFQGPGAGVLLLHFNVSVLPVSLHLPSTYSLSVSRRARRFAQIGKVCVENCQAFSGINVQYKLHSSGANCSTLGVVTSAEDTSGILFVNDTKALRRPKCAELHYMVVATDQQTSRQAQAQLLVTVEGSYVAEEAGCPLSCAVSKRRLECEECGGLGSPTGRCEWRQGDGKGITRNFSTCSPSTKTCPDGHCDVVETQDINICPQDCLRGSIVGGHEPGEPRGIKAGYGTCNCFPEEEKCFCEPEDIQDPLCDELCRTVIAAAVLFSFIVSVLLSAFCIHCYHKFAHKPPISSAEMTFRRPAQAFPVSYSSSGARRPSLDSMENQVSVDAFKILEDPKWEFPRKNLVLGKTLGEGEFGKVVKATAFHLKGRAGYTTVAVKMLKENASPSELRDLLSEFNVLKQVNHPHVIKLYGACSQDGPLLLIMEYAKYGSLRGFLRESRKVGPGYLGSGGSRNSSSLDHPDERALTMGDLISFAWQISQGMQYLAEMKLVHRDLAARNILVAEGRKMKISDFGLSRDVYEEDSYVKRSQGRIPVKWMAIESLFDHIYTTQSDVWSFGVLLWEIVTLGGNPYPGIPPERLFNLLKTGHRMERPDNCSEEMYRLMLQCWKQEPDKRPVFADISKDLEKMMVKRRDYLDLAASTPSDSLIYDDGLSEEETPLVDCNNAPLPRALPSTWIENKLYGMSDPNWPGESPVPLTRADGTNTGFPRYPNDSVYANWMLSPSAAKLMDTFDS
# Chain of Proto-oncogene tyrosine-protein kinase receptor Ret (Homo sapiens, UniProt P07949, V804M) (P07949 29-1114 V804M limits assumed): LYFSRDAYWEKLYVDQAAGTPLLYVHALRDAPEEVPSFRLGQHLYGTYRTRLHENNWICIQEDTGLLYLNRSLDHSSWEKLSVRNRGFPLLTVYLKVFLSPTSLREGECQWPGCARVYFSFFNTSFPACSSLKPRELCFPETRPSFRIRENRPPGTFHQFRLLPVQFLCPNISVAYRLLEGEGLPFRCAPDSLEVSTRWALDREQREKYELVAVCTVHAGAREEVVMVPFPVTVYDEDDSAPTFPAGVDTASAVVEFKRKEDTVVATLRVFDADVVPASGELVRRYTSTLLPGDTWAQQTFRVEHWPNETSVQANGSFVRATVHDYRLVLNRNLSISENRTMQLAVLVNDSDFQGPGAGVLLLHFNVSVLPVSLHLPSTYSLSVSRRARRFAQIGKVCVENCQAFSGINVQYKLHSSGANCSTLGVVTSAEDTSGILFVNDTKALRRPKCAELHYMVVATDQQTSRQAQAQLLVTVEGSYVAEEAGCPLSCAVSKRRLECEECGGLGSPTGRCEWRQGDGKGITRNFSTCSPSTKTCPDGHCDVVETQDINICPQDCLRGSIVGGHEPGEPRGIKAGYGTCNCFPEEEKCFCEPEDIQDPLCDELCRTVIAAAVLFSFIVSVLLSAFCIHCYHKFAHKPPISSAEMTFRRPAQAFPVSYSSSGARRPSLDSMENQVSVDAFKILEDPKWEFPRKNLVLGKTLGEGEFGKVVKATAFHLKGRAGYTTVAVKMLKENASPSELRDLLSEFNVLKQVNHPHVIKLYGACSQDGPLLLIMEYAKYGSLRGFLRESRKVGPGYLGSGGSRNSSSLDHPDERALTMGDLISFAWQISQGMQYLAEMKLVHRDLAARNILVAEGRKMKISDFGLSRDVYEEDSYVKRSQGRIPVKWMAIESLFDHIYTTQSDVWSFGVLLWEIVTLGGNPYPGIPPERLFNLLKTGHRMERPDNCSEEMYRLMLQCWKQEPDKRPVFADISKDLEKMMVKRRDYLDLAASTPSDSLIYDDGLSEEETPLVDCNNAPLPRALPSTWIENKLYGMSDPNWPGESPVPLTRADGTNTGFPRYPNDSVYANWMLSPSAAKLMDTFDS
# T1 sequence (P07949 whole entry): as the sequence (P07949 whole entry V804M) above, with M804V counted along it
# Chain of Proto-oncogene tyrosine-protein kinase receptor Ret (Homo sapiens), P07949 [S891A] (P07949 whole entry S891A): as the sequence (P07949 whole entry V804M) above, with M804V, S891A counted along it
# Chain of Cytochrome P450 2C19 (P33261 whole entry): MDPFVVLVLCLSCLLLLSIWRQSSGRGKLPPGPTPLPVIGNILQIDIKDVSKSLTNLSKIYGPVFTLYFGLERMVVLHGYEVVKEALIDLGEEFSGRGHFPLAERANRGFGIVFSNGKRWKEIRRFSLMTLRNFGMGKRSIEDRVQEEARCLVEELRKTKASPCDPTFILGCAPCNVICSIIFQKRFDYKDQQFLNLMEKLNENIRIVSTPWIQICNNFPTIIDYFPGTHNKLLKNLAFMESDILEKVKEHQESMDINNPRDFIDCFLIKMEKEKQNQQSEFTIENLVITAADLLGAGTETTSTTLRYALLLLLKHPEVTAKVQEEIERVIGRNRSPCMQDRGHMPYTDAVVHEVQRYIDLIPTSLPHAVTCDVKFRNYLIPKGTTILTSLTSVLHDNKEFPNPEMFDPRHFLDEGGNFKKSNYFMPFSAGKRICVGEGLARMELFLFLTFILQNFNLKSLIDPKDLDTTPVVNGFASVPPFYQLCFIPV
smiles,measurement,setting,value
CC(C)n1nc(/C=N/OCc2ccccc2)c2c(N)ncnc21,GI50,[1],9.27 µM
same,GI50,[2],> 10 µM
same,GI50,[3],7.41 µM
same,GI50 at 48 h,[4],> 10 µM
same,IC50,[5],8.33 µM
same,GI50 at 240 h,[6],9.85 µM
Nc1ncnc2c1c(-c1cc(C3CC3)on1)nn2C1CCCCC1,GI50,[1],0.29 µM
same,GI50,[2],2 µM
same,IC50,[7],0.014 µM
same,GI50,[3],0.52 µM
same,GI50 at 48 h,[4],> 10 µM
same,IC50,[5],0.002 µM
same,GI50 at 240 h,[6],32.5 µM
CC(C)n1nc(-c2cc(C3CCCC3)on2)c2c(N)ncnc21,GI50,[1],> 10 µM
same,GI50,[2],> 10 µM
same,IC50,[7],1.57 µM
same,GI50,[3],7.12 µM
same,GI50 at 48 h,[4],> 10 µM
same,IC50,[5],0.241 µM
same,GI50 at 240 h,[6],11.5 µM
CC(C)n1nc(-c2cc(C(C)(C)C)on2)c2c(N)ncnc21,GI50,[1],> 10 µM
same,GI50,[2],7.31 µM
same,IC50,[7],2.1 µM
same,GI50,[3],6.12 µM
same,GI50 at 48 h,[4],> 10 µM
same,IC50,[5],0.21 µM
same,GI50 at 240 h,[6],24.7 µM
CC(C)n1nc(-c2cc(Cc3ccccc3)on2)c2c(N)ncnc21,GI50,[1],> 10 µM
same,GI50,[2],> 10 µM
same,IC50,[7],1.99 µM
same,GI50,[3],> 10 µM
same,GI50 at 48 h,[4],> 10 µM
same,IC50,[5],0.241 µM
same,GI50 at 240 h,[6],21.5 µM
CC(C)n1nc(-c2ccon2)c2c(N)ncnc21,GI50,[1],7.92 µM
same,GI50,[2],8.94 µM
same,IC50,[7],0.903 µM
same,GI50,[3],3.21 µM
same,GI50 at 48 h,[4],> 10 µM
same,IC50,[5],0.213 µM
same,GI50 at 240 h,[6],18.6 µM
Nc1ncnc2c1c(-c1cc(C3CC3)on1)nn2Cc1ccccc1,GI50,[1],> 10 µM
same,GI50,[2],> 10 µM
same,IC50,[7],0.557 µM
same,GI50,[3],> 10 µM
same,GI50 at 48 h,[4],> 10 µM
same,IC50,[5],0.074 µM
same,GI50 at 240 h,[6],39.6 µM
CC(C)(O)Cn1nc(-c2cc(C3CC3)on2)c2c(N)ncnc21,GI50,[1],4.25 µM
same,GI50,[2],6.75 µM
same,IC50,[7],0.217 µM
same,GI50,[3],1.77 µM
same,GI50 at 48 h,[4],> 10 µM
same,IC50,[5],0.068 µM
same,GI50 at 240 h,[6],2.82 µM
COc1cc2nccc(Oc3ccc(NC(=O)C4(C(=O)Nc5ccc(F)cc5)CC4)cc3)c2cc1OC [CABOZANTINIB],GI50,[1],0.12 µM
same,Activity,[8],Non-toxic
same,GI50,[2],0.89 µM
same,GI50,[9],0.01 µM
same,GI50,[10],0.91 µM
same,GI50,[3],0.05 µM
same,Activity,TT [11],<3 CFU
same,GI50 at 240 h,[6],4.93 µM
same,Activity,[12],Toxic
CC(C)n1nc(-c2cc(C3CC3)on2)c2c(N)ncnc21,GI50,[1],0.24 µM
same,IC50,Cytochrome P450 2C19,> 30 µM
same,IC50,Cytochrome P450 2D6,> 30 µM
same,IC50,[13],0.039 µM
same,GI50,[14],3 µM
same,Activity,TT [15],150 CFU
same,IC50,[16],0.002 µM
same,IC50,[17],0.311 µM
same,IC50,[18],0.023 µM
same,Activity,[8],Non-toxic
same,IC50,[19],0.003 µM
same,IC50,[20],0.01 µM
same,half-life,[21],13 min
same,GI50,[2],0.32 µM
same,GI50,[9],0.09 µM
same,IC50,Cytochrome P450 2C9,> 30 µM
same,IC50,[22],0.142 µM
same,IC50,[23],0.072 µM
same,IC50,Cytochrome P450 1A2,2 µM
same,GI50,[10],0.5 µM
same,IC50,[7],0.004 µM
same,IC50,[24],0.137 µM
same,IC50,[25],0.006 µM
same,IC50,[26],0.065 µM
same,IC50,[27],0.082 µM
same,GI50,[3],0.08 µM
same,GI50 at 48 h,[4],> 10 µM
same,inhibition (INH),[28],Not Active
same,IC50,[5],0.0014 µM
same,IC50,[29],0.021 µM
same,IC50,Cytochrome P450 3A4,> 30 µM
same,GI50 at 240 h,[6],13.7 µM
same,RatioGI50,[30],50
same,Activity,[12],Non-toxic
same,IC50,[31],0.096 µM
CC(C)n1nc(C#Cc2ccccc2)c2c(N)ncnc21,GI50,[1],2.54 µM
same,Activity,[32],Non-toxic
same,Activity,TT [15],150 CFU
same,IC50,[16],0.054 µM
same,IC50,[19],0.014 µM
same,IC50,[20],0.075 µM
same,GI50,[2],2.6 µM
same,GI50,[9],0.35 µM
same,GI50,[10],5.43 µM
same,IC50,[7],2.65 µM
same,IC50,[25],0.057 µM
same,GI50,[3],0.61 µM
same,GI50 at 48 h,[4],16.1 µM
same,IC50,[29],3.13 µM
same,Activity,[33],Non-toxic
same,GI50 at 240 h,[6],3.58 µM
CC(C)n1nc(C2=NOC(c3ccccc3)C2)c2c(N)ncnc21 (configuration not stated),GI50,[1],> 10 µM
same,GI50,[2],> 10 µM
same,IC50,[7],5.68 µM
same,GI50,[3],6.24 µM
same,GI50 at 48 h,[4],> 10 µM
same,IC50,[5],0.583 µM
same,GI50 at 240 h,[6],18.9 µM
